Results taken from patent US20240074442A1, “UVARIA GRANDIFLORA EXTRACT AS A BOTANICAL FUNGICIDE, PREPARATION METHOD THEREFOR, AND APPLICATION THEREOF” (HAINAN UNIVERSITY, priority 2021, published 2024).
Values after ≈ are worked out from the molar mass of the structure shown. Structures can show the parent of a compound that is named as a salt. Where two headings read alike, the source gives them in different places.

Legend:
Rhizoctonia solani = assay: Mycelial growth rate method, in vitro fungicidal activity; assay type: cell-based; conditions: R.S
[1] = test system: Neoscytalidium dimidiatum; assay: as above; assay type: cell-based; conditions: N.D, 50 μg mL^−1; for inhibition at 50 µg/mL: Neoscytalidium dimidiatum
Fusarium graminearum = assay: microbe, parasite or virus in culture; assay type: cell-based; conditions: for inhibition at 50 µg/mL: read-out: Inhibition rate (%)
Phytophthora capsici [2] = assay: Mycelial growth rate method, in vitro fungicidal activity; assay type: cell-based; conditions: P.C
Gilbertella persicaria = assay: as above; assay type: cell-based; conditions: G.P
Colletotrichum musae = assay: as above; assay type: cell-based; conditions: C.M
Colletotrichum capsici = assay: as above; assay type: cell-based; conditions: C.C, 50 μg mL^−1; for inhibition at 50 µg/mL: Colletotrichum truncatum
Colletotrichum siamense = assay: as above; assay type: cell-based; conditions: C.S, 50 μg mL^−1; for inhibition at 50 µg/mL: Colletotrichum siamense
Pyricularia oryzae = assay: microbe, parasite or virus in culture; assay type: cell-based; conditions: for inhibition at 50 µg/mL: read-out: Inhibition rate (%)
[3] = test system: Colletotrichum gloeosporioiles; assay: Mycelial growth rate method, in vitro fungicidal activity; assay type: cell-based; conditions: C.G, 50 μg mL^−1; for inhibition at 50 µg/mL: Colletotrichum
Phytophthora capsici [4] = assay: Potted fungicidal activity test, protective effect; conditions: in vivo
cowpea powdery mildew = assay: Potted fungicidal activity test; conditions: in vivo
Cucumber downy mildew = assay: Potted fungicidal activity test; assay type: in vivo, Pseudoperonospora cubensis; conditions: for Control effect (%): potted, cucumber downy mildew
potato late blight = assay type: in vivo; conditions: potted
[5] = Rhizoctonia solani, 50 μg mL^−1
[6] = Rhizoctonia solani, read-out: EC50
[7] = Phytophthora capsici, 50 μg mL^−1
[8] = Phytophthora capsici, read-out: EC50
[9] = Gilbertella persicaria, 50 μg mL^−1
[10] = Gilbertella persicaria, read-out: EC50
[11] = Colletotrichum musae, 50 μg mL^−1
[12] = Colletotrichum musae, read-out: EC50

Structure (SMILES) | Control effect (%) (Phytophthora capsici [4]) | Disease index (±SD) (Phytophthora capsici [4]) | inhibition at 50 µg/mL (Rhizoctonia solani; [5]) [%] | EC50 (Rhizoctonia solani; [6]) [µg/mL] | inhibition at 50 µg/mL [1] [%] | EC50 (Fusarium graminearum; Fusarium graminearum) [µg/mL] | inhibition at 50 µg/mL (Fusarium graminearum; Fusarium graminearum) [%] | inhibition at 50 µg/mL (Phytophthora capsici [2]; [7]) [%] | EC50 (Phytophthora capsici [2]; [8]) [µg/mL] | inhibition at 50 µg/mL (Gilbertella persicaria; [9]) [%] | EC50 (Gilbertella persicaria; [10]) [µg/mL] | inhibition at 50 µg/mL (Colletotrichum musae; [11]) [%] | EC50 (Colletotrichum musae; [12]) [µg/mL] | inhibition at 50 µg/mL (Colletotrichum capsici) [%] | inhibition at 50 µg/mL (Colletotrichum siamense) [%] | EC50 (Pyricularia oryzae; Pyricularia oryzae) [µg/mL] | inhibition at 50 µg/mL (Pyricularia oryzae; Pyricularia oryzae) [%] | inhibition at 50 µg/mL [3] [%] | other results
CO/C=C(/C(=O)OC)c1ccccc1Oc1cc(Oc2ccccc2C#N)ncn1 [Azoxystrobin] |  |  |  |  |  |  |  |  |  |  |  |  |  |  |  |  |  |  | EC50 (Rhizoctonia solani): <0.06 ± 0.12 µg/mL; Inhibition rate (%) (Rhizoctonia solani; 50 μg mL^−1): 73.1%; Inhibition rate (%) [1]: 51.2%; EC50 (Fusarium graminearum; F.G): 5.27 ± 0.21 µg/mL (≈ 13.1 µM); Inhibition rate (%) (Fusarium graminearum; F.G, 50 μg mL^−1): 65.7%; EC50 (Phytophthora capsici [2]): 18.81 ± 0.31 µg/mL (≈ 46.6 µM); Inhibition rate (%) (Phytophthora capsici [2]; 50 μg mL^−1): 69.9%; EC50 (Gilbertella persicaria): 39.09 ± 0.05 µg/mL (≈ 96.9 µM); Inhibition rate (%) (Gilbertella persicaria; 50 μg mL^−1): 57.2%; EC50 (Colletotrichum musae): 52.51 ± 0.42 µg/mL (≈ 130 µM); Inhibition rate (%) (Colletotrichum musae; 50 μg mL^−1): 51.2%; Inhibition rate (%) (Colletotrichum capsici): 41.27%; Inhibition rate (%) (Colletotrichum siamense): 60.9%; EC50 (Pyricularia oryzae; P.O): 17.89 ± 0.14 µg/mL (≈ 44.3 µM); Inhibition rate (%) (Pyricularia oryzae; P.O, 50 μg mL^−1): 57.8%; Inhibition rate (%) [3]: 52.5%
COc1ccc2cc3[n+](cc2c1OC)CCc1cc2c(cc1-3)OCO2 [Berberine hydrochloride] | 80.0 | 16.0 ± 2.0 |  |  |  |  |  |  |  |  |  |  |  |  |  |  |  |  | 
COc1ccc(C(=CC(=O)N2CCOCC2)c2ccc(Cl)cc2)cc1OC [Dimethomorph] | 100.0 | 0.0 ± 0.0 |  |  |  |  |  |  |  |  |  |  |  |  |  |  |  |  | 
COc1ccc2ccc(=O)oc2c1CC=C(C)C [Osthole] |  |  | 75.8 | 16 ± 1.39 (≈ 65.6 µM) | 68.2 | 21.4 ± 0.61 (≈ 87.7 µM) | 65.1 | 55.7 | 52.59 ± 0.27 (≈ 215 µM) | 94.3 | 11.4 ± 0.51 (≈ 46.7 µM) | 93.3 | 9.18 ± 0.33 (≈ 37.6 µM) | 4.8 | 37.7 | 11.5 ± 0.42 (≈ 47.2 µM) | 89.1 | 56.9 | 
CCCC1COC(Cn2cncn2)(c2ccc(Cl)cc2Cl)O1 (stereo not drawn) [Propiconazole] |  |  |  |  |  |  |  |  |  |  |  |  |  |  |  |  |  |  | Control effect (%) (cowpea powdery mildew): 100%; Disease index (±SD) (cowpea powdery mildew): 0 ± 0.0
O=C(OC[C@]1(O)C(=O)C=C[C@H](OC(=O)c2ccccc2)[C@H]1O)c1ccccc1 [zeylenone] |  |  | 76.8 | 4.91 ± 0.12 (≈ 12.8 µM) | 43.8 | 22.94 ± 0.11 (≈ 60 µM) | 52.5 | 88.1 | 6.98 (≈ 18.3 µM) | 77.6 | 17.3 ± 2.29 (≈ 45.2 µM) | 84.3 | 3.37 (≈ 8.81 µM) | 34.4 | 43.5 | 21.38 ± 0.14 (≈ 55.9 µM) | 66.2 | 45 | control effect on cucumber downy mildew compared with Cyazofamid (Cucumber downy mildew; potted fungicidal activity test, in words): equivalent to that of the chemical fungicide Cyazofamid; Control effect (%) (Cucumber downy mildew; 6.25 μg mL^−1): 25 ± 1.0%; Control effect (%) (Cucumber downy mildew; 12.5 μg mL^−1): 70 ± 3.0%; Control effect (%) (Cucumber downy mildew; 25 μg mL^−1): 88 ± 1.7%; Control effect (%) (Cucumber downy mildew; 50 μg mL^−1): 99 ± 2.0%; Control effect (%) (potato late blight; 6.25 μg mL^−1): 0 ± 0.0%; Control effect (%) (potato late blight; 12.5 μg mL^−1): 0 ± 0.0%; Control effect (%) (potato late blight; 25 μg mL^−1): 0 ± 0.0%; Control effect (%) (potato late blight; 50 μg mL^−1): 20 ± 2.0%
